Laboratory results as given in patent publication EP0025288A1, “Derivatives of monic acid, processes for their preparation, compositions containing them and their preparation” (priority 1979, dated 1981).

How the values were obtained:
Type in all cases: cell-based
M. suipneumoniae TAM 6N = experiment: MIC, anti-mycoplasmal, Friis broth solidified with 0.9% agarose; conditions: inoculum 10^3 to 10^5 C.F.U., 6 days incubation at 37°C
[1] = test system: M. suipneumoniae J2206/183b; experiment: as above; conditions: inoculum 10^3 to 10^5 C.F.U., 6 days incubation at 37°C
Past multocida PA1 = experiment: MIC, veterinary bacteria; conditions: veterinary bacteria (Table 2)
Strep pyogenes C 641848 = experiment: MIC, human bacteria, serial dilution in nutrient agar; conditions: Strep pyogenes C 641848 (footnote c); nutrient agar containing 5% 'chocolated' horse blood
[2] = test system: M. bovigenitalium ATCC 14173; experiment: MIC, anti-mycoplasmal, Friis broth solidified with 0.9% agarose; conditions: inoculum 10^3 to 10^5 C.F.U., 6 days incubation at 37°C
Ps aeruginosa 10662 = experiment: MIC, human bacteria, serial dilution in nutrient agar; conditions: nutrient agar containing 5% 'chocolated' horse blood
E coli E1 = experiment: MIC, veterinary bacteria; conditions: veterinary bacteria (Table 2)
M. gallisepticum S6 = experiment: MIC, anti-mycoplasmal, Friis broth solidified with 0.9% agarose; conditions: inoculum 10^3 to 10^5 C.F.U., 6 days incubation at 37°C
[3] = test system: Staph aureus B4 (pen resis); experiment: MIC, veterinary bacteria; conditions: veterinary bacteria (Table 2)
K aerogenes A = experiment: MIC, human bacteria, serial dilution in nutrient agar; conditions: nutrient agar containing 5% 'chocolated' horse blood
E coli NCTC 10418 [4] = experiment: as above; conditions: nutrient agar containing 5% 'chocolated' horse blood
M. bovis NCTC 10131 = experiment: microbe, parasite or virus in culture; conditions: M. bovis NCTC 10131; inoculum 10^3 to 10^5 C.F.U., 6 days incubation at 37°C
Strep pneumoniae CN33 = experiment: MIC, human bacteria, serial dilution in nutrient agar; conditions: nutrient agar containing 5% 'chocolated' horse blood
[5] = test system: Staph aureus 152 (pen sens); experiment: MIC, veterinary bacteria; conditions: veterinary bacteria (Table 2)
S typhimurium S18 = experiment: MIC, veterinary bacteria; conditions: veterinary bacteria (Table 2)
[6] = test system: Strep suis (group D) SPS11; experiment: MIC, veterinary bacteria; conditions: veterinary bacteria (Table 2)
Staph aureus W2827 = experiment: MIC, human bacteria, serial dilution in nutrient agar; conditions: nutrient agar containing 5% 'chocolated' horse blood
[7] = test system: M. suipneumoniae PW/C/210; experiment: MIC, anti-mycoplasmal, Friis broth solidified with 0.9% agarose; conditions: inoculum 10^3 to 10^5 C.F.U., 6 days incubation at 37°C
Staph aureus Oxford [8] = experiment: MIC, veterinary bacteria; conditions: veterinary bacteria (Table 2)
P mirabilis 889 = experiment: MIC, human bacteria, serial dilution in nutrient agar; conditions: nutrient agar containing 5% 'chocolated' horse blood
M. hyorhinis ATCC 23234 = experiment: MIC, anti-mycoplasmal, Friis broth solidified with 0.9% agarose; conditions: inoculum 10^3 to 10^5 C.F.U., 6 days incubation at 37°C
Staph aureus Oxford [9] = experiment: MIC, human bacteria, serial dilution in nutrient agar; conditions: nutrient agar containing 5% 'chocolated' horse blood
Strep pyogenes A R80/421 = experiment: as above; conditions: Strep pyogenes A R80/421 (footnote b); nutrient agar containing 5% 'chocolated' horse blood
M. hyorhinis ATCC 25021 = experiment: MIC, anti-mycoplasmal, Friis broth solidified with 0.9% agarose; conditions: inoculum 10^3 to 10^5 C.F.U., 6 days incubation at 37°C
M. suipneumoniae NB12 = experiment: as above; conditions: inoculum 10^3 to 10^5 C.F.U., 6 days incubation at 37°C
Bord bronchisptica BO9 = experiment: MIC, veterinary bacteria; conditions: veterinary bacteria (Table 2)
M. suipneumoniae Str. 11 = experiment: MIC, anti-mycoplasmal, Friis broth solidified with 0.9% agarose; conditions: inoculum 10^3 to 10^5 C.F.U., 6 days incubation at 37°C
Strep agalactiae SPA1 = experiment: MIC, veterinary bacteria; conditions: veterinary bacteria (Table 2)
Bord bronchiseptica BO8 = experiment: MIC, veterinary bacteria; conditions: veterinary bacteria (Table 2)
M. pneumoniae ATCC 15492 = experiment: MIC, anti-mycoplasmal, Friis broth solidified with 0.9% agarose; conditions: inoculum 10^3 to 10^5 C.F.U., 6 days incubation at 37°C
[10] = test system: Haemophilus influenzae Wy21; experiment: MIC, human bacteria, serial dilution in nutrient agar; conditions: nutrient agar containing 5% 'chocolated' horse blood
S dublin S7 = experiment: MIC, veterinary bacteria; conditions: veterinary bacteria (Table 2)
Strep dysgalaciae SPD1 = experiment: MIC, veterinary bacteria; conditions: veterinary bacteria (Table 2)
[11] = test system: M. suipneumoniae ATCC 25095; experiment: MIC, anti-mycoplasmal, Friis broth solidified with 0.9% agarose; conditions: inoculum 10^3 to 10^5 C.F.U., 6 days incubation at 37°C
E coli ESS = experiment: MIC, human bacteria, serial dilution in nutrient agar; conditions: nutrient agar containing 5% 'chocolated' horse blood
[12] = test system: Neisseria catarrhalis 1502; experiment: as above; conditions: Neisseria catarrhalis 1502 (footnote a); nutrient agar containing 5% 'chocolated' horse blood
Bacillus subtilis 6633 = experiment: as above; conditions: nutrient agar containing 5% 'chocolated' horse blood
M. dispar NCTC 10125 = experiment: MIC, anti-mycoplasmal, Friis broth solidified with 0.9% agarose; conditions: inoculum 10^3 to 10^5 C.F.U., 6 days incubation at 37°C
[13] = test system: M. suipneumoniae NCTC 10110; experiment: as above; conditions: inoculum 10^3 to 10^5 C.F.U., 6 days incubation at 37°C
Staph aureus Russell = experiment: MIC, human bacteria, serial dilution in nutrient agar; conditions: nutrient agar containing 5% 'chocolated' horse blood
Strep pyogenes B 2788 = experiment: as above; conditions: nutrient agar containing 5% 'chocolated' horse blood
M. suipneumoniae HK(2) = experiment: MIC, anti-mycoplasmal, Friis broth solidified with 0.9% agarose; conditions: inoculum 10^3 to 10^5 C.F.U., 6 days incubation at 37°C
Past multocida PA2 = experiment: MIC, veterinary bacteria; conditions: veterinary bacteria (Table 2)
[14] = test system: Erysipelothrix rhusiopathiae NCTC 8163; experiment: MIC, veterinary bacteria; conditions: veterinary bacteria (Table 2)
[15] = test system: M. hyosynoviae ATCC 25591; experiment: MIC, anti-mycoplasmal, Friis broth solidified with 0.9% agarose; conditions: inoculum 10^3 to 10^5 C.F.U., 6 days incubation at 37°C
Past Haemolytica PA5 = experiment: MIC, veterinary bacteria; conditions: veterinary bacteria (Table 2)
Strep uberis SPU1 = experiment: MIC, veterinary bacteria; conditions: veterinary bacteria (Table 2)
[16] = test system: Pasteurella multocida 1633; experiment: MIC, human bacteria, serial dilution in nutrient agar; conditions: nutrient agar containing 5% 'chocolated' horse blood
M. suipneumoniae JF 435 = experiment: MIC, anti-mycoplasmal, Friis broth solidified with 0.9% agarose; conditions: inoculum 10^3 to 10^5 C.F.U., 6 days incubation at 37°C
M. suipneumoniae LABER = experiment: as above; conditions: inoculum 10^3 to 10^5 C.F.U., 6 days incubation at 37°C
[17] = test system: Corynebacterium pyogenes CY1; experiment: MIC, veterinary bacteria; conditions: veterinary bacteria (Table 2)
Strep faecalis I = experiment: MIC, human bacteria, serial dilution in nutrient agar; conditions: nutrient agar containing 5% 'chocolated' horse blood
M. suipneumoniae MS 16 = experiment: MIC, anti-mycoplasmal, Friis broth solidified with 0.9% agarose; conditions: inoculum 10^3 to 10^5 C.F.U., 6 days incubation at 37°C
[18] = test system: Corynebacterium zerosis 9755; experiment: MIC, human bacteria, serial dilution in nutrient agar; conditions: nutrient agar containing 5% 'chocolated' horse blood
E coli NCTC 10418 [19] = experiment: MIC, veterinary bacteria; conditions: veterinary bacteria (Table 2)
M. suipneumoniae UCD 1 = experiment: MIC, anti-mycoplasmal, Friis broth solidified with 0.9% agarose; conditions: inoculum 10^3 to 10^5 C.F.U., 6 days incubation at 37°C

Cyclohexan-4-onyl monate A [Example 8]
in vitro MIC (M. suipneumoniae TAM 6N): 0.5 µg/mL
in vitro MIC [1]: 0.5 µg/mL
MIC (Past multocida PA1): .312 µg/mL
MIC (Strep pyogenes C 641848): ^c0.5 µm/ml
in vitro MIC [2]: 0.025 µg/mL
MIC (Ps aeruginosa 10662): >100 µm/ml
MIC (E coli E1): >80 µg/mL
in vitro MIC (M. gallisepticum S6): 5.0 µg/mL
MIC [3]: 2.5 µg/mL
MIC (K aerogenes A): >100 µm/ml
MIC (E coli NCTC 10418 [4]): >100 µm/ml
in vitro MIC (M. bovis NCTC 10131): 0.025 µg/mL
MIC (Strep pneumoniae CN33): 0.5 µm/ml
MIC [5]: 1.25 µg/mL
MIC (S typhimurium S18): >80 µg/mL
MIC [6]: 2.5 µg/mL
MIC (Staph aureus W2827): 2.5 µm/ml
in vitro MIC [7]: 0.25 µg/mL
MIC (Staph aureus Oxford [8]): 1.25 µg/mL
MIC (P mirabilis 889): 100 µm/ml
in vitro MIC (M. hyorhinis ATCC 23234): 0.25 µg/mL
MIC (Staph aureus Oxford [9]): 1.0 µm/ml
MIC (Strep pyogenes A R80/421): ^b0.5 µm/ml
in vitro MIC (M. hyorhinis ATCC 25021): 0.25 µg/mL
in vitro MIC (M. suipneumoniae NB12): 0.25 µg/mL
MIC (Bord bronchisptica BO9): 20 µg/mL
in vitro MIC (M. suipneumoniae Str. 11): 0.25 µg/mL
MIC (Strep agalactiae SPA1): .625 µg/mL
MIC (Bord bronchiseptica BO8): 80 µg/mL
in vitro MIC (M. pneumoniae ATCC 15492): 1.0 µg/mL
MIC [10]: 0.1 µm/ml
MIC (S dublin S7): >80 µg/mL
MIC (Strep dysgalaciae SPD1): .156 µg/mL
in vitro MIC [11]: 0.25 µg/mL
MIC (E coli ESS): 0.5 µm/ml
MIC [12]: ^a0.5 µm/ml
MIC (Bacillus subtilis 6633): 0.5 µm/ml
in vitro MIC (M. dispar NCTC 10125): 0.1 µg/mL
in vitro MIC [13]: 0.5 µg/mL
MIC (Staph aureus Russell): 2.5 µm/ml
MIC (Strep pyogenes B 2788): 0.5 µm/ml
in vitro MIC (M. suipneumoniae HK(2)): 0.5 µg/mL
MIC (Past multocida PA2): .156 µg/mL
MIC [14]: 10 µg/mL
in vitro MIC [15]: 0.1 µg/mL
MIC (Past Haemolytica PA5): 5 µg/mL
MIC (Strep uberis SPU1): .312 µg/mL
MIC [16]: 0.5 µm/ml
in vitro MIC (M. suipneumoniae JF 435): 0.5 µg/mL
in vitro MIC (M. suipneumoniae LABER): 0.25 µg/mL
MIC [17]: >80 µg/mL
MIC (Strep faecalis I): 25.0 µm/ml
in vitro MIC (M. suipneumoniae MS 16): 0.25 µg/mL
MIC [18]: >100 µm/ml
MIC (E coli NCTC 10418 [19]): >80 µg/mL
in vitro MIC (M. suipneumoniae UCD 1): 0.5 µg/mL
